Two molecules from patent US20240409527A1, “INHIBITORS OF ALPHA-5 BETA-1 INTEGRIN AND USES THEREOF” (The Regents of the University of California, priority 2022, published 2024) can be followed below.

Each structure is given as a SMILES string. Bounds are passed on as bounds.

Usually IC50 stands for the concentration that inhibits the measured activity by half. A high value points to lower potency.

The assay deals with α5β1 integrin (Homo sapiens, UniProt P05556+P08648). Kind of assay: IC50 for the selected compounds (assay not described).
α5β1 integrin, sequence (P08648 42-894 limits assumed): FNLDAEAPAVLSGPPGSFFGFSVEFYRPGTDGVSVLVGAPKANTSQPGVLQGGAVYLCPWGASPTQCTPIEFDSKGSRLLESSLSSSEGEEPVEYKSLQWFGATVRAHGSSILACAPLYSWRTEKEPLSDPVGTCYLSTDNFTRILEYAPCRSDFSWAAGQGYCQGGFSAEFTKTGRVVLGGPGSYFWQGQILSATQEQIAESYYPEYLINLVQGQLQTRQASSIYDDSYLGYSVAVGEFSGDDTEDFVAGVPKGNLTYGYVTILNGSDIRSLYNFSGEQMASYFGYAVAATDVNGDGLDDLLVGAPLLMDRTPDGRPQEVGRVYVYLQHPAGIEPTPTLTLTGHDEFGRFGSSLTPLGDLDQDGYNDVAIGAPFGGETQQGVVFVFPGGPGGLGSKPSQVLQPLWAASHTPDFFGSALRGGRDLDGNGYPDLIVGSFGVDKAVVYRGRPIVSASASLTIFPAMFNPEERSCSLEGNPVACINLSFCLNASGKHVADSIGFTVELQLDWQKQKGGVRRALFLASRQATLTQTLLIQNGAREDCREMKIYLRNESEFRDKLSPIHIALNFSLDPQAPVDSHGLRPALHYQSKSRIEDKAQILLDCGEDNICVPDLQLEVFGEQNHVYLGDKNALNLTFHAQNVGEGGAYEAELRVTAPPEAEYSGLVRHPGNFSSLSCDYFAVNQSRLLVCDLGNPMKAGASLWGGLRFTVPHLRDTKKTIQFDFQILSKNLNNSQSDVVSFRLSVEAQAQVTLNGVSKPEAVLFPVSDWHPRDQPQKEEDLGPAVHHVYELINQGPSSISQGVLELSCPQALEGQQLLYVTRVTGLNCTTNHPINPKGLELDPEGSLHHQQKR
α5β1 integrin, sequence (P05556 21-798): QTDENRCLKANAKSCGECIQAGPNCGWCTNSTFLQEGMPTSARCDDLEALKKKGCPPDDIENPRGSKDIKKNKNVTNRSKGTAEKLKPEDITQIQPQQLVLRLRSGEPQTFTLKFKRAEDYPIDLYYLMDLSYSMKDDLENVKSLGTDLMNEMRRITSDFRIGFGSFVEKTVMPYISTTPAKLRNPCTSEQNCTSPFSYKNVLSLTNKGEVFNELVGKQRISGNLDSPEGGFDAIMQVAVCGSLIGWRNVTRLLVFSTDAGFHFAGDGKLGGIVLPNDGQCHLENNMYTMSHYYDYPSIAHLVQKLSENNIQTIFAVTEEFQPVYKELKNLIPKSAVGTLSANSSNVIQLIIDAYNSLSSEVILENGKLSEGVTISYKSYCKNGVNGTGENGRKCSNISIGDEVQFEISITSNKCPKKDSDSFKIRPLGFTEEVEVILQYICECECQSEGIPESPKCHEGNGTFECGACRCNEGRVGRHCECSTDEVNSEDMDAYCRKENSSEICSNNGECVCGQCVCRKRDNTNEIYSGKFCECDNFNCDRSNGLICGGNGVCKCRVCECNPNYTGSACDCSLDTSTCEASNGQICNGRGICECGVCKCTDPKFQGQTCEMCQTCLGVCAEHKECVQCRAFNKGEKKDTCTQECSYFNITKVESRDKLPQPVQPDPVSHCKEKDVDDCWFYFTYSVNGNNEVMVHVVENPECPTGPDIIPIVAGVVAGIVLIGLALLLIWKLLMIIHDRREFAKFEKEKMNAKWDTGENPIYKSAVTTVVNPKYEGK

For `O=C(CNC(=O)c1cncc(NC2=NCCCN2)c1)NC[C@H](NC(=O)c1c(Cl)cc(-c2ccccc2)cc1Cl)C(=O)O` [SU15210-00204-01, (S)-2-(3,5-dichlorobiphenyl-4-ylcarboxamido)-3-(2-(5-(1,4,5,6-tetrahydropyrimidin-2-ylamino)nicotinamido)acetamido)propanoic acid], the half-inhibitory concentration (IC50) is under 1 µM.
For `O=C(CNC(=O)c1c[nH]c(=O)c(NC2=NCCCN2)c1)NC[C@H](NC(=O)c1c(Cl)cc(-c2ccccc2)cc1Cl)C(=O)O` [SU15210-00206-01, (S)-2-(3,5-dichlorobiphenyl-4-ylcarboxamido)-3-(2-(6-oxo-5-(1,4,5,6-tetrahydropyrimidin-2-ylamino)-1,6-dihydropyridine-3-carboxamido)acetamido)propanoic acid] the value was under 1 µM.
